The values that follow come from ChEMBL document CHEMBL4177632.

For one data set, the species on record is Rattus norvegicus. Put plainly: Selectivity index, ratio of IC50 for ALR1 in Wistar rat kidney to IC50 for ALR2 in Wistar rat eye lens.
In data set [1] the target is Aldo-keto reductase family 1 member B1 (Rattus norvegicus) (UniProt P07943). Description: Inhibition of ALR2 in Wistar rat lens assessed as reduction in glucose induced-sorbitol accumulation by measuring sorbitol level at 1 uM preincubated for 30 mins followed by glucose addition measured after 3 hrs by resazurin dye based fluorescence assay (reference value: 803.6 +/- 104.6 nmol/g).

For data set [2] the target is unchanged. Put plainly: Inhibition of ALR2 in Wistar rat lens assessed as reduction in glucose induced-sorbitol accumulation by measuring sorbitol level at 100 uM preincubated for 30 mins followed by glucose addition measured after 3 hrs by resazurin dye based fluorescence assay (reference value: 803.6 +/- 104.6 nmol/g).
Data set [3] shares this target. Description: Inhibition of ALR2 in Wistar rat lens assessed as reduction in glucose induced-sorbitol accumulation by measuring sorbitol level preincubated for 30 mins followed by glucose addition measured after 3 hrs by resazurin dye based fluorescence assay.
Data set [4] has the same target. Description: Inhibition of ALR2 in Wistar rat lens assessed as reduction in glucose induced-sorbitol accumulation by measuring sorbitol level at 0.1 uM preincubated for 30 mins followed by glucose addition measured after 3 hrs by resazurin dye based fluorescence assay (reference value: 803.6 +/- 104.6 nmol/g).
Data set [5] deals with CCOC(=O)N1CCc2c(c3cc(OC)ccc3n2CC(=O)O)C1. Description: Inhibition of recombinant human AKR1B1 assessed as Km for D,L-glyceraldehyde substrate at 80 nM (reference value: 0.065+/- 0.003 […]).
For data set [6] the test system is unchanged. Put plainly: Inhibition of recombinant human AKR1B1 assessed as Km for D,L-glyceraldehyde substrate at 120 nM (reference value: 0.065+/- 0.003 […]).

As to `Cc1c(C=O)c2ccccc2n1CC(=O)O`, the Ratio IC50 in the data set filed under Rattus norvegicus was found to be 35.
In the case of `CC(=O)N1CCc2c(c3ccccc3n2CC(=O)O)C1`, the figures for the Activity in data set [1], in data set [2] and in data set [4] were 631 nmol/g, 184 nmol/g and 756 nmol/g, respectively. Also, the inhibition result in data set [3] was “Dose-dependent effect”. Moreover, in the data set listed under Rattus norvegicus, the Ratio IC50 was 1070.
Turning to `CCOC(=O)N1CCc2c(c3cc(C(=O)O)ccc3n2CC(=O)O)C1`, in the data set listed under Rattus norvegicus, the Ratio IC50 is 381.
With `O=C(O)Cn1c2c(c3ccccc31)CN(C(=O)C1CC1)CC2`, the Ratio IC50 in the data set filed under Rattus norvegicus was found to be 131.
On to `CCOC(=O)N1CCc2c(c3cc(OC)ccc3n2CC(=O)O)C1`, for which the values for the Activity in data set [1], in data set [2] and in data set [4] were 440 nmol/g, 249 nmol/g and 657 nmol/g, respectively. For the same molecule, the inhibition result in data set [3] is “Dose-dependent effect”. Also, the Ratio IC50 in the data set filed under Rattus norvegicus was determined as 792.
Take “Aldo-keto reductase family 1 member B1 (Homo sapiens) (from UniProt P15121)”: the Km in data set [5] is 36 µM; in data set [6], 22 µM.
As to `CC(=O)c1c(C)n(CC(=O)O)c2ccccc12`, in the data set listed under Rattus norvegicus, the Ratio IC50 came out at 66.
